“Also recorded” adds a separate entry of the source. One block for each compound: values may come before it.
What was measured:
GST-Q58-Htn = biological target: T1, GST-Q58-Htn (Homo sapiens, UniProt P42858, INS38QQQQQQQQQQQQQQQQQQQQQQQQQQQQQQQQQQQQQ); assay: Biochemical/immunoblotting filter assay of mutant Htt fragment aggregation; settings: for inhibitory activity on aggregation (overall statement): concentration not given, 0.5-60 μM tested; for inhibitory activity on aggregation (overall statement) / inhibition of aggregate formation: 24 h; for inhibition of Htt aggregation: 1-5 μM concentrations, dose curve FIG. 4; for inhibition of aggregate formation: ODN at 20 μM or 40 μM, FIG. 5/6; for reproducible inhibitory activity: biochemical assay
T1 construct: this fragment consists of the amino terminal 171 amino acids with a tract of 58 glutamine residues fused to GST; GST (N, cleaved yes)
T1 sequence (P42858 with tags, fused parts or gaps with the stated changes limits assumed): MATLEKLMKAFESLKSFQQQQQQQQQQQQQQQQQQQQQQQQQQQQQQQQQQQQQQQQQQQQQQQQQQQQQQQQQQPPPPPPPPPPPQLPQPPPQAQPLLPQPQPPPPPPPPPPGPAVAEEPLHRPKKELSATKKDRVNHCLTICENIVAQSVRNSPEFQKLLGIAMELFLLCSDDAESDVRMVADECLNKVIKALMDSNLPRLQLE

[1] = system: Httexon1-eGFP fusion protein aggregation in HEK293 cells; assay: Aggregate formation (green fluorescent foci) in HEK293 cells transfected with p72Q, microscopy; assay type: cell-based, human; settings: for inhibition of aggregate formation (number of green fluorescent foci): 150-750 nM; for reproducible inhibitory activity: cell-based assay
polyQ aggregates = settings: cited from earlier work; for inhibition of the aggregation process: R6/2 mouse model; for toxicity: mouse, in vivo
[2] = system: aggregated Htt-eGFP in HEK293 cells; assay: FACS analysis of aggregation in HEK293 cells transfected with p72Q; assay type: cell-based, human; settings: 1 μM and 2.5 μM, 48 hours, FIG. 13
[3] = co-transfected with p72Q, 48 hours

Compound: 5′-GGGGGTGGGGGTGGGGTGGGGGT-3′ [T40216]
inhibitory activity on aggregation (overall statement) (GST-Q58-Htn): effective inhibitors of aggregation; also recorded: capable of inhibiting GST-Q58-Htn aggregation

dose response of aggregation inhibition (GST-Q58-Htn): dose response visible
Compound: 5′-GGGTGGGTGGGTGGGT-3′ [T30923]
inhibition of aggregate formation (number of green fluorescent foci) [1, 3]: could not fully substitute for HDG
inhibitory activity on aggregation (overall statement) (GST-Q58-Htn): effective inhibitors of aggregation; also recorded: capable of inhibiting GST-Q58-Htn aggregation

Compound: 5′-GGTGGTGGTGGTTGTGGTGGTGGTGG-3′ (DNA GGTGGTGGTGGTTGTGGTGGTGGTGG; listed as DNA, chemistry not given here) [GRO26B]
inhibitory activity on aggregation (overall statement) (GST-Q58-Htn): inhibit Huntington aggregation

inhibitory activity on aggregation (overall statement) (GST-Q58-Htn): inhibit Huntington aggregation
Compound: 5′-TTTGGTGGTGGTGGTTGTGGTGGTGGTGG-3′ [GRO29A]

Compound: Oc1c(I)cc(Cl)c2cccnc12 [Clioquinol]
inhibition of the aggregation process (polyQ aggregates): inhibit the aggregation process
toxicity (polyQ aggregates): neurotoxicity

Compound: Nc1c(/N=N/c2ccc(-c3ccc(/N=N/c4cc(S(=O)(=O)O)c5ccccc5c4N)cc3)cc2)cc(S(=O)(=O)O)c2ccccc12 [Congo Red]
inhibition of the aggregation process (polyQ aggregates): inhibit the aggregation process
toxicity (polyQ aggregates): neurotoxicity
reduction of green fluorescent foci ([1]; Congo Red added concurrently with p72Q (0.2 μM or 1 μM), higher dosage, FIG. 8): significant reduction
inhibition of aggregate formation (number of green fluorescent foci) [1, 3]: displayed effects similar to HDG
inhibition of aggregate formation ([1]; lower dosage of Congo Red (0.2 μM or 1 μM), FIG. 8): only partially inhibited

Compound: HDA: 20-mer with all As (DNA AAAAAAAAAAAAAAAAAAAA; listed as DNA, chemistry not given here)
peak of high intensity eGFP (aggregates) [2]: little detectable change; also recorded: no significant reduction in aggregates
reproducible inhibitory activity [1]: None
inhibition of aggregate formation (number of green fluorescent foci) [1, 3]: little effect on the number of aggregates; also recorded: does not appear to inhibit aggregate formation
inhibition of Htt aggregation (GST-Q58-Htn): unable to detect any Htt aggregate inhibition
inhibition of aggregate formation (GST-Q58-Htn): unable to inhibit aggregate formation; also recorded: no inhibition of aggregation was observed
reproducible inhibitory activity (GST-Q58-Htn): None

Compound: HDG 20/2: HDG 20-mer wherein every other G was substituted with a T residue (DNA GTGTGTGTGTGTGTGTGTGT; listed as DNA, chemistry not given here)
activity of HDG variants with T residues inserted ([1]; co-transfected with p72Q, 48 hours, FIG. 11): None of these molecules were found to be effective inhibitors of aggregation; also recorded: reduced significantly; also recorded: low level of activity

Compound: HDT: 20-mer with all T's (DNA TTTTTTTTTTTTTTTTTTTT)
reproducible inhibitory activity [1]: None
inhibition of Htt aggregation (GST-Q58-Htn): unable to detect any Htt aggregate inhibition
inhibition of aggregate formation (GST-Q58-Htn): unable to inhibit aggregate formation; also recorded: no inhibition of aggregation was observed
reproducible inhibitory activity (GST-Q58-Htn): None
